From patent US11360096B2, “Complex BRET technique for measuring biological interactions” (DUKE UNIVERSITY, priority 2019, dated 2022)

Assays:
[1] = test system: Gαi:β-arrestin-2 complexes; experiment: Split luciferase Gαi-LgBiT:β-arrestin-2-smBiT complex formation in cells overexpressing V2R; format: cell-based, human
Experimental: (§1) HEK293T cells seeded in 6-well plates were co-transfected with 500 ng of smBiT tagged β-arrestin-2, and either 250 ng of LgBiT tagged receptor or 2000 ng of untagged receptor and varying concentrations of LgBiT Gα protein expression vector (most experiments were conducted between 50-200 ng of Gα plasmid) or 2000 ng of mKO tagged β-arrestin-2 and 500 ng of smBiT tagged V2R using a calcium phosphate protocol. Twenty-four hours post-transfection, cells were plated onto clear bottom, white-walled 96-well plates at 50,000-100,000 cells/well in “BRET media”—clear minimum essential medium (GIBCO) supplemented with 2% FBS, 10 mM HEPES, 1×GLUTAMAX™, and 1× Anti-Anti (GIBCO). […] For luminescence split luciferase studies, plates were read with a BioTek SYNERGY™ Neo2 plate reader set at 37° C. with a 485 nm emission filter. […] For split luciferase luminescence experiments, plates were read both before and after ligand treatment to calculate Δnet change in luminescence and subsequently normalized to vehicle treatment. For complex BRET experiments, plates were read on a Berthold Mithras LB940 using pre-warmed media and instrument at 37° C. using a standard Rluc emissions filter (480 nm) with a custom mKO 542 nm long-pass emission filter (Chroma Technology Co., Bellows Falls, Vt.). The BRET ratio was calculated by dividing the mKO signal by the luciferase signal.

[2] = target: T1, Angiotensin II type 1 receptor (AT1R) (Homo sapiens, UniProt P30556); experiment: TGF-α shedding assay of canonical G protein signaling at AT1R; format: cell-based; conditions: four Gα-family proteins tested
T1 sequence (P30556 1-359): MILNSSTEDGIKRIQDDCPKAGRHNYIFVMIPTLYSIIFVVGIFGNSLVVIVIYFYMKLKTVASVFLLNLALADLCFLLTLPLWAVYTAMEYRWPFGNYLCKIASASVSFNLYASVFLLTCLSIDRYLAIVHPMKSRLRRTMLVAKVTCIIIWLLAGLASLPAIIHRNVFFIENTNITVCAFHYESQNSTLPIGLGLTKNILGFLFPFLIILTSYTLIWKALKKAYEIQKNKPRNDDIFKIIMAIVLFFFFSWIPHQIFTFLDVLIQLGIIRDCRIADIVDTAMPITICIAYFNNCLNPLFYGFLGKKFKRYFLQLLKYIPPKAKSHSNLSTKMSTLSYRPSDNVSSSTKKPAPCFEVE

[3] = test system: human pulmonary arterial smooth muscle cells (PASMCs); experiment: Wound-healing migration assay, primary human cells; format: cell-based
Experimental: Human pulmonary arterial smooth muscle cells (PASMCs) were isolated from human lungs from a de-identified health donor (International Institute for the Advancement of Medicine, Edison, N.J.) with Institutional Review Board approval. Human PASMCs were seeded into 24-well plates at a density of 1.5×10^4 cells per well in Human Smooth Muscle Cell Basal Medium supplemented with Human SMC Growth Supplement (Cell Application, Inc.). At 30% confluency, cells were transfected with 50 ng of control or β-arrestin-1 and β-arrestin-2 ON […]™ siRNA pools (Dharmacon, Inc.). When the cells reached 100% confluency, they were serum starved for 4 hours with 2 hrs of PTX (200 ng/mL) treatment. Scratches were made using small pipette tips. Cells were washed using DPBS and stimulated with basal smooth muscle cell medium containing 1 μM Angiotensin-II (Millipore Sigma) or 10 μM TRV120023 (Genscript USA Inc.). The wound closure was monitored using live-cell station Zeiss Axio Observer microscope (Carl Zeiss, Thornwood, N.Y.). The images were captured in real-time at 0 hour and for every hour until 16 hours. The initial edges of the scratch at 0 hour time point were marked and migrated distance 12-16 hrs afterwards was measured using METAMORPH® Premier software (Molecular Devices, San Jose, Calif.) at the Duke Light Microscopy Core Facility (Durham, N.C.).

[4] = test system: HEK 293 cells stably expressing AT1R; experiment: Wound-healing migration assay, immortalized cells; format: cell-based, human; conditions: PTX pretreatment 200 ng/mL
Experimental: HEK 293T cells stably expressing the AT1R were utilized. Briefly, 70 μl of cell suspension at a concentration of 5×10^5 cells per mL was applied into each well of silicone inserts (Ibidi, Martinsried, Germany) on 24 well plate, and after 24 hrs incubation, the inserts were removed to create a wound field. The cells were incubated additionally for 12 hrs with 1 μM of TRV120023 and visualized with a Zeiss Axio Observer microscope (Carl Zeiss, Thornwood, N.Y.). Wound healing was then analyzed using ImageJ (NIH, Bethesda, Md.) wound healing tool macros.

[5] = target: T2, V2R:β-arrestin-2 complexes (Homo sapiens, UniProt P30518); experiment: Split luciferase V2R-LgBiT:β-arrestin-2-smBiT association; format: cell-based; conditions: V2R or β2AR
T2 construct: 3xHA (N); expressed in transfected cells; host or cells: HEK293T
Experimental: as §1

ERK1/2 phosphorylation = experiment: Phospho-ERK/total ERK immunoblot in 'triple G' HEK 293 cells overexpressing V2R; format: cell-based, human; conditions: agonist treated
Experimental: Cells were serum starved for at least four hours, stimulated with the indicated ligand, subsequently washed 1× with ice-cold PBS, lysed in ice-cold RIPA buffer containing phosphatase and protease inhibitors (Phos-STOP (Roche), Complete EDTA free (Sigma)) and rotated for forty-five minutes, and cleared of insoluble debris by centrifugation at >12,000×g (4° C., 15 minutes), after which the supernatant was collected. Protein was resolved on SDS-10% polyacrylamide gels, transferred to nitrocellulose membranes, and immunoblotted with the indicated primary antibody overnight (4° C.). Phospho-ERK (Cell Signaling Technology, #9106) and total ERK (Millipore #06-182) were used to assess ERK activation. A1-CT antibody that recognizes both isoforms of β-arrestin was utilized, with protein loading assessed by alpha-tubulin (Sigma #T6074). Galpha i-1 (13533, Santa Cruz Biotechnology), Galpha q/11/14 (365906, Santa Cruz Biotechnology), Galpha 12 (515445, Santa Cruz Biotechnology), Galpha 13 (293424, Santa Cruz Biotechnology), Galpha s/olf (55545, Santa Cruz Biotechnology) antibodies were used to verify ‘Δ3G’ HEK 293 cells.
Horseradish peroxidase-conjugated polyclonal mouse anti-rabbit-IgG or anti-mouse-IgG were used as secondary antibodies. […] For quantification, phospho-protein signal was normalized to total protein signal using Image Lab (Bio-Rad) within the same blot.

## CCOc1ccc2c(c1)C1(CCC(OCCN3CCOCC3)CC1)C(=O)N2S(=O)(=O)c1ccc(C(=O)NC(C)(C)C)cc1OC (stereo not shown) [SR121463]
[1]; HEK 293 cells overexpressing V2R, pretreatment 30 min, 10 uM
  Gαi:β-arrestin complex formation after antagonist pretreatment: prevented formation of Gαi:β-arrestin complexes

## Angiotensin II [AngII]
[2]
  Canonical G protein signaling at AT1R: canonically signals through both Gαq and Gαi

## pertussis toxin
[3]
  Pertussis toxin sensitivity of migration towards TRV120023: pertussis toxin sensitive
[1]; pertussis toxin pretreatment
  Sensitivity of the Gαi:β-arrestin interaction to pertussis toxin: partially sensitive to pertussis toxin
[4]
  Reduction of TRV120023-mediated migration by pertussis toxin pretreatment: ~50%
[5]
  Effect of pertussis toxin pretreatment on β-arrestin recruitment to receptor: did not affect β-arrestin recruitment to either the V2R or β2AR
ERK1/2 phosphorylation
  ERK phosphorylation after pertussis toxin pretreatment: abrogated, but did not eliminate, ERK phosphorylation
